Values after ≈ are worked out from the molar mass of the structure shown. Active and inactive are the calls of the source. The calls are words filed in the database; no cut-off is given here. A value given as a limit tells only on which side of the number the result lay.

Series [1] has as its target DNA topoisomerase 2-alpha (Homo sapiens) (UniProt P11388). In words: Inhibition of TOP2 (unknown origin) assessed as formation of short DNA fragments using supercoiled plasmid DNA at 100 uM by ethidium bromide staining based gel.
Series [2] is described as follows: Solubility of the compound in double distilled water. In kind it is physicochemical.
The test system of another series is HCT-116. In words: Antiproliferative activity against human HCT-116 cells assessed as inhibition of cell proliferation incubated for 72 hrs by CCK8 assay. It is filed as functional, cell-based. As to conditions: HCT-116, 72 h.
Another series has as its system A549. The series is described as follows: Antiproliferative activity against human A549 cells assessed as inhibition of cell proliferation incubated for 72 hrs by CCK8 assay. It is filed as functional, cell-based. As to conditions: A549, 72 h.
For another series, the system named is MDA-MB-231. The series is described as follows: Antiproliferative activity against human MDA-MB-231 cells assessed as inhibition of cell proliferation incubated for 72 hrs by CCK8 assay. In kind it is functional, cell-based. As to conditions: MDA-MB-231, 72 h.

DNA topoisomerase 2-alpha (Homo sapiens), sequence (P11388 whole entry, the tested form may be a part): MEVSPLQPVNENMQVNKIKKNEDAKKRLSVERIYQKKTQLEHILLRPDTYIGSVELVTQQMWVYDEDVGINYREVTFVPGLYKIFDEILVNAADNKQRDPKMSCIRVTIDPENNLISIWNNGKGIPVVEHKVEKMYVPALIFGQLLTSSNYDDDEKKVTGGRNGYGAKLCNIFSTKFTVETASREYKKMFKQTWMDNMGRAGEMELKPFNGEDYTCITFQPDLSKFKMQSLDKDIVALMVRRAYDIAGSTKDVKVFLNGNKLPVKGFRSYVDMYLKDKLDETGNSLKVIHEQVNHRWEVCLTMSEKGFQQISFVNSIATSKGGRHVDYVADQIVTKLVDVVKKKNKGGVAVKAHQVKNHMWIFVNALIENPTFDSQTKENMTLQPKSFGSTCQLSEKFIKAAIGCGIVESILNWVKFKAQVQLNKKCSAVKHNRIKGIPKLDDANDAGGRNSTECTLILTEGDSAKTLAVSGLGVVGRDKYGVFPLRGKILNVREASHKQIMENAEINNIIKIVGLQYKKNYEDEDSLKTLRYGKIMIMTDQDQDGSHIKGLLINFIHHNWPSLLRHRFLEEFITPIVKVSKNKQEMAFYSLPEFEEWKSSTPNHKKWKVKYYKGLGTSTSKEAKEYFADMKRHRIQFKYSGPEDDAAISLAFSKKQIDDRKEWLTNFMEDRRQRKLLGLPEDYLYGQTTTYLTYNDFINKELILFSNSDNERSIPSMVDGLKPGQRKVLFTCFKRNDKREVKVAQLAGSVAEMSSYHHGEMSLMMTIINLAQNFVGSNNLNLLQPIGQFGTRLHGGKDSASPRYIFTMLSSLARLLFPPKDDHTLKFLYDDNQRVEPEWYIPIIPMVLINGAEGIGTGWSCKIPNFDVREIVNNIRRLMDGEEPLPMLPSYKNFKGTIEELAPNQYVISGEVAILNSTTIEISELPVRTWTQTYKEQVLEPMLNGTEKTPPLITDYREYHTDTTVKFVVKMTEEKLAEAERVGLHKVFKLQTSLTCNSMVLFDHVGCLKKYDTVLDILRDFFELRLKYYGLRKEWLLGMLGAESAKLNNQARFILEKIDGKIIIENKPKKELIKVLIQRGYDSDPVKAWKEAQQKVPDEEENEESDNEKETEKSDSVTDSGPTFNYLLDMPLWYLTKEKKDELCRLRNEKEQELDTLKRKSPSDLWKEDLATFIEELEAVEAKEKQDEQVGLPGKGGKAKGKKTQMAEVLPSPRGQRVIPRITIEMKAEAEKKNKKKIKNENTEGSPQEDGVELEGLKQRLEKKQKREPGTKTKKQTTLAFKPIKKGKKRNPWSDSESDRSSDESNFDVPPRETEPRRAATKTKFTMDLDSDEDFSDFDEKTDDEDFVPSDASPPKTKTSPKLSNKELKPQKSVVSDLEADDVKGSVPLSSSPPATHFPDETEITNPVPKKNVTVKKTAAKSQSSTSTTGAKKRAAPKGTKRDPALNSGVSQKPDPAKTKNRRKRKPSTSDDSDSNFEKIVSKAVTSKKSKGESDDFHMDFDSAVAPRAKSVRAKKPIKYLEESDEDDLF

With `CSCCC(N)C(=O)Nc1ccc2[nH]c3c(c2c1)CCN1C(=O)c2ccccc2N(C)C31` (stereo not drawn), the inhibition result in series [1] is “Active”. The compound also registered a solubility in series [2] of 15 µg/mL (≈ 33.4 µM). Besides, the IC50 was 1600 nM with HCT-116, greater than 10000 nM in the series on A549 and 810 nM in the series on MDA-MB-231.

On to `CN1c2ccccc2C(=O)N2CCc3c([nH]c4ccc(OC(=O)CCC(=O)OCCN5CCOCC5)cc34)C21` (stereo not drawn), for which the inhibition result in series [1] is “Active”. The compound further came in with a solubility in series [2] of 17 µg/mL (≈ 31.9 µM). Further, the IC50 is less than 3 nM with HCT-116, greater than 10000 nM in the series with A549 and 20 nM with MDA-MB-231.

Consider `CN1c2ccccc2C(=O)N2CCc3c([nH]c4ccc(OC(=O)CCC(=O)OCCN5CCCCC5)cc34)C21` (stereo not drawn), for which, in series [1], the inhibition entry is “Active”. This compound also returned a solubility in series [2] of 18 µg/mL (≈ 33.9 µM). Further, the IC50 in the series with HCT-116 is less than 3 nM; with A549 it was 9220 nM; in the series on MDA-MB-231, 680 nM.

Consider `CC(N)C(=O)Nc1ccc2[nH]c3c(c2c1)CCN1C(=O)c2ccccc2N(C)C31` (stereo not drawn), for which the inhibition result in series [1] was “Active”. Further, the concentration in solution in series [2] (solubility) was 28 µg/mL (≈ 71.9 µM). For the same compound, the figures for the IC50 in the series with HCT-116, in the series on A549 and in the series with MDA-MB-231 were 940 nM, 4900 nM and 520 nM, respectively.

In the case of `CN1c2ccccc2C(=O)N2CCc3c([nH]c4ccc(NC(=O)C(N)CCC(N)=O)cc34)C21` (stereo not drawn), the inhibition entry in series [1] is “Active”. The compound further showed a solubility in series [2] of 14 µg/mL (≈ 31.4 µM). The results for the IC50 with HCT-116, in the series with A549 and in the series on MDA-MB-231 were 5800 nM, greater than 10000 nM and greater than 10000 nM, respectively.

On to `CN1c2ccccc2C(=O)N2CCc3c([nH]c4ccc(NC(=O)C5CCC(=O)N5)cc34)C21` (stereo not drawn), for which the inhibition result in series [1] is “Active”. Moreover, the solubility in series [2] turned out to be 11 µg/mL (≈ 25.6 µM). For the same compound, the IC50 in the series on HCT-116, in the series on A549 and with MDA-MB-231 was greater than 10000 nM in each case.

For the compound `CN1c2ccccc2C(=O)N2CCc3c([nH]c4ccc(OC(=O)CCC(=O)O)cc34)C21` (stereo not drawn), the inhibition result in series [1] is “inactive”. Further, the solubility in series [2] is 15 µg/mL (≈ 35.8 µM). For the same compound, the IC50 was less than 3 nM in the series with HCT-116, 5490 nM in the series with A549 and 260 nM in the series with MDA-MB-231.

Regarding `CN1c2ccccc2C(=O)N2CCc3c([nH]c4ccc(NC(=O)C(N)CO)cc34)C21` (stereo not drawn), in series [1], the inhibition result was “Active”. Besides, the solubility in series [2] came out at 20 µg/mL (≈ 49.3 µM). Moreover, the IC50 in the series on HCT-116 came to 1900 nM; in the series with A549 it was 6300 nM; with MDA-MB-231, 870 nM.

For the compound `CC[C@@]1(O)C(=O)OCc2c1cc1n(c2=O)Cc2cc3ccccc3nc2-1` [CAMPTOTHECIN], the IC50 amounted to 17 nM with HCT-116, 170 nM in the series with A549 and 241 nM in the series on MDA-MB-231.

As for `CN1c2ccccc2C(=O)N2CCc3c([nH]c4ccc(NC(=O)CCC(=O)O)cc34)C21` (stereo not drawn), the inhibition entry in series [1] was “Active”. This compound registered a solubility in series [2] of 16 µg/mL (≈ 38.2 µM). Moreover, the IC50 in the series on HCT-116 is 1400 nM; with A549 it was greater than 10000 nM; in the series on MDA-MB-231 it was 530 nM.

For `CN1c2ccccc2C(=O)N2CCc3c([nH]c4ccc(NS(N)(=O)=O)cc34)C21` (stereo not drawn), the inhibition entry in series [1] was “Active”. The compound further came in with a solubility in series [2] of 23 µg/mL (≈ 57.9 µM). Moreover, the IC50 in the series with HCT-116 is 1100 nM; in the series with A549, 5000 nM; in the series with MDA-MB-231, 840 nM.

In the case of `CN1c2ccccc2C(=O)N2CCc3c([nH]c4ccc(NC(=O)C(N)Cc5c[nH]c6ccccc56)cc34)C21` (stereo not drawn), the inhibition entry in series [1] is “Active”. This compound returned a solubility in series [2] of 12 µg/mL (≈ 23.8 µM). The IC50 in the series with HCT-116 is 1700 nM; in the series on A549, greater than 10000 nM; in the series with MDA-MB-231, 520 nM.

Regarding `CNCC(=O)Nc1ccc2[nH]c3c(c2c1)CCN1C(=O)c2ccccc2N(C)C31` (stereo not drawn), the inhibition result in series [1] was “Active”. In series [2], this compound showed a solubility of 25 µg/mL (≈ 64.2 µM). The half-inhibitory concentration (IC50) was 1400 nM in the series on HCT-116, greater than 10000 nM in the series on A549 and 1800 nM in the series on MDA-MB-231.

As for `CC(O)C(N)C(=O)Nc1ccc2[nH]c3c(c2c1)CCN1C(=O)c2ccccc2N(C)C31` (stereo not drawn), the inhibition entry in series [1] was “Active”. The compound also registered a solubility in series [2] of 11 µg/mL (≈ 26.2 µM). Moreover, the IC50 with HCT-116 is 1600 nM; with A549 it was greater than 10000 nM; in the series on MDA-MB-231, greater than 10000 nM.

These data come from ChEMBL document CHEMBL4837225, “Water-soluble derivatives of evodiamine: Discovery of evodiamine-10-phosphate as an orally active antitumor lead compound” (Eur J Med Chem, 2021).
